In patent US9241939B2, “Combination of (a) a phosphoinositide 3-kinase inhibitor and (b) a modulator of RAS/RAF/MEK pathway” (Novartis AG, priority 2008, dated 2016):
Like-named read-outs stand apart in the source and are kept apart here.

Experiments:
[1] = test system: Akt; p70S6K or ERK in A549 cells; experiment: Western-blotting of phosphorylated Akt, p70S6K and ERK; assay type: cell-based; settings: incubated alone, 30 min, PD03251901 250 nM
Experimental: FIG. 1: A549 cells were incubated either with compound A, PD03251901 (250 nM) alone or in combination for 30 min. Cells were then harvested and estimation of phosphorylated levels of either Akt; p70S6K or ERK done by regular Western-blotting.

[2] = test system: A549 cells; experiment: standard methylene blue proliferation assay; assay type: cell-based
Experimental: The KRAS mutant NSCLC cell line was used in a standard methylene blue proliferation assay.
A549 cells were incubated with increasing amount of either compound A or PD0325901 (NVP-LBW624) alone or in combination, for 72 h and proliferation assessed with a standard methylene blue assay. The G150 were determined and CI quantified with the CalcuSyn software.

[3] = test system: BN472 tumors; experiment: BN472 tumor model; assay type: in vivo; settings: rat, weak and not significant
Experimental: FIG. 2: Rat bearing BN472 tumors were treated with the indicated compound at the indicated dose and schedule, either alone or in combination. Evolution of tumor growth were followed by callipering throughout the course of the study. *, P<0.05 (Dunnett's).
FIG. 3: Rat bearing BN472 tumors were treated with the indicated compound at the indicated dose and schedule, either alone or in combination. Evolution of body weight were followed throughout the course of the study. *, P<0.05 (Dunnett's).
In the BN472 tumor model administration of compound A at a dose of 10 mg/kg (p.o., 1q24h) or the Raf inhibitor Raf265 (at a dose of 2.5 mg/kg, po, […]) produced a weak and not significant antitumor activity (expressed as T/C) of either 83 and 76. The combination of compound A (10 mg/kg) with RAF265, however, produced a strong and statistically significant antitumor activity with a T/C of 34% (FIG. 2).

Cn1c(=O)n(-c2ccc(C(C)(C)C#N)cc2)c2c3cc(-c4cnc5ccccc5c4)ccc3ncc21 [Compound A, 2-methyl-2-[4-(3-methyl-2-oxo-8-quinolin-3-yl-2,3-dihydro-imidazo[4,5-c]quinolin-1-yl)-phenyl]-propionitrile]
block of respective downstream effectors (ERK and Akt) [1]: do block their respective downstream effectors | GI50 ([2]; A549 cells, 72 h, compound A and PD0325901 (NVP-LBW624) in combination, read-out: GI50 (in nM) in combination): 4.46 nM | Combination Index (CI) ([2]; A549 cells, 72 h, compound A with PD0325901 (NVP-LBW624), CalcuSyn software): 0.718 | GI50 ([2]; Homo sapiens, A549, 72 h, A549 cells (KRAS mutant NSCLC), 72 h, single agent, read-out: GI50 (in nM) alone): 9.41 nM | GI50 ([2]; Homo sapiens, A549, 72 h, A549 cells, 72 h, compound A and PD0325901 (NVP-LBW624) in combination, read-out: GI50 (in nM) in combination): 3.2 nM | times less BEZ235 required for a similar decrease in proliferation ([2]; in presence of PD0325901): 3 times | antitumor activity (expressed as T/C) ([3]; compound A 10 mg/kg p.o. 1q24h alone): 83

O=C(NOC[C@H](O)CO)c1ccc(F)c(F)c1Nc1ccc(I)cc1F [PD0325901, reference compound]
block of respective downstream effectors (ERK and Akt) [1]: do block their respective downstream effectors | GI50 ([2]; Homo sapiens, A549, 72 h, read-out: GI50 (in nM) alone): 36.8 nM | GI50 ([2]; Homo sapiens, A549, 72 h, read-out: GI50 (in nM) in combination): 11.5 nM

Cn1c(Nc2ccc(C(F)(F)F)cc2)nc2cc(Oc3ccnc(-c4ncc(C(F)(F)F)[nH]4)c3)ccc21 [RAF265, reference compound]
antitumor activity (expressed as T/C) ([3]; Raf265 2.5 mg/kg po q24h alone): 76
